In brackets after ≈: the same amount, converted by molar mass. Entries after “also recorded” stand apart in the source; their conditions may differ.
Experiments:
collagenase = test: Collagenase inhibition assay (fluorescent MMP-2 substrate); type: biochemical; conditions: for Collagenase inhibitory activity (in words): pure compounds at 25, 100, 250 μM; for Collagenase inhibition: mean ± SD, n = 3
Procedure: Collagenase inhibitory activity was determined by a previously described enzymatic method with slight modifications, based on the fluorescence of the MMP-2 substrate after its degradation by collagenase. In a 96-well black microplate, 50 μL of Tris-HCL buffer (10 mM, pH = 7.3), 25 μL of the tested sample (dissolved in Tris-HCL buffer), and 25 μL of collagenase solution (30 μg/mL dissolved in Tris-HCL buffer) were preincubated for 10 min at 37 °C, avoiding light exposure. Afterwards, 25 μL of MMP-2 substrate (50 μM dissolved in Tris-HCL buffer) were added, and the plate was incubated for an additional 30 min at 37 °C in the dark. The fluorescent intensity was measured at an excitation maximum of 320 nm and an emission maximum of 405 nm using a Tecan (Infinite 200 Pro series, Männedorf, Switzerland). Crude extracts were evaluated at 75 μg/mL, 150 μg/mL, and 300 μg/mL and pure compounds at 25 μΜ, 100 μΜ, and 250 μΜ, respectively, dissolved in PBS buffer, while the percentage of DMSO was under 5% of the total volume inside the plate. […] Experiments were performed in triplicate. The collagenase inhibitory activity was calculated by the following equation:Inhibition (%) = (Abs A − Abs B)/(Abs A) × 100 where Abs A = Abs Control − Abs Control Blank and Abs B = Abs Sample − Abs Sample Blank. Abs Control is the absorbance of Tris-HCL buffer with 5% DMSO, collagenase enzyme, and substrate, and Abs Sample is the absorbance of the tested sample in the Tris-HCL buffer, collagenase enzyme, and substrate. Blanks consist of all the above reagents except the enzyme.

[1] = test system: human cell lung cancer (NCI-H187) cell line; set-up: method as in PMID 30450973; conditions: cited from earlier work
tyrosinase = tyrosinase (Agaricus bisporus, UniProt C7FF04); test: Tyrosinase inhibition assay (L-DOPA, dopachrome at 475 nm); type: biochemical; conditions: pure compounds at 25, 100, 250 μM
elastase = biological target: T1, elastase (Sus scrofa, UniProt P00772); test: Elastase inhibition assay (N-succinyl-Ala-Ala-Ala-p-nitroanilide); type: biochemical; conditions: for Elastase inhibitory activity (in words): pure compounds at 25, 100, 250 μM
T1 construct: purchased Sigma-Aldrich
Procedure: Elastase inhibitory activity was measured by the presence of p-nitroaniline, after the reaction of the elastase enzyme with the substrate N-succinyl-Ala-Ala-Ala-p-nitroanilide, using a previously described protocol with minor modifications. At first, 70 μL of Trizma-base buffer (50 mM, pH = 7.5), 10 μL of the tested sample, and 5 μL of elastase solution (0.4725 U/mL dissolved in Trizma-base buffer) were mixed in the 96-well microplate and were incubated for 10 min at 37 °C, avoiding light exposure. Following this procedure, 15 μL of the substrate (2 mM dissolved in Trizma-base buffer) were added to every well of the plate, and then the plate was incubated for 30 min at 37 °C. The presence of p-nitroaniline was measured spectrophotometrically at 405 nm using a Tecan (Infinite 200 Pro series, Männedorf, Switzerland). The final tested concentrations of the extracts and pure compounds were 50 μg/mL, 100 μg/mL, 300 μg/mL, and 25 μΜ, 100 μΜ, 250 μΜ, respectively, dissolved in Trizma-base buffer, and the percentage of DMSO was under 5% of the total volume inside the plate. The negative control of the assay was 5% DMSO Trizma-base buffer, and the positive was Elastatinal (IC100 = 5 μg/mL and IC50 = 0.5 μg/mL), a strong irreversible competitive elastase inhibitor. Experiments were performed in triplicate.
The elastase inhibitory activity was calculated by the following equation:Inhibition (%) = (Abs A − Abs B)/(Abs A) × 100 where Abs A = Abs Control − Abs Control Blank and Abs B = Abs Sample − Abs Sample Blank. Abs Control is the absorbance of Trizma-base Buffer with 5% DMSO, elastase enzyme, and substrate, and Abs Sample is the absorbance of the tested sample in the Trizma-base buffer, elastase enzyme, and substrate. Blanks consist of all the above reagents except the enzyme.

[2] = DPPH radical scavenging assay; type: biochemical; conditions: dissolved in DMSO
Procedure: The final tested concentrations of the extracts were 5 μg/mL, 10 μg/mL, 20 μg/mL, 50 μg/mL, 100 μg/mL, 250 μg/mL, and 500 μg/mL dissolved in DMSO. […] Experiments were performed in triplicate. The antioxidant activity was calculated by the following equation:Inhibition (%) = (Abs A − Abs B)/(Abs A) × 100 where Abs A = Abs Control − Abs Control Blank and Abs B = Abs Sample − Abs Sample Blank. Abs Control is the absorbance of the negative control, and Abs Sample is the absorbance of the tested sample. Blanks consist of all the above reagents except the free radical reagent.

mushroom tyrosinase = test system: mushroom tyrosinase; set-up: method as in PMID 18503477; conditions: cited from earlier work

T1 sequence (P00772 27-266): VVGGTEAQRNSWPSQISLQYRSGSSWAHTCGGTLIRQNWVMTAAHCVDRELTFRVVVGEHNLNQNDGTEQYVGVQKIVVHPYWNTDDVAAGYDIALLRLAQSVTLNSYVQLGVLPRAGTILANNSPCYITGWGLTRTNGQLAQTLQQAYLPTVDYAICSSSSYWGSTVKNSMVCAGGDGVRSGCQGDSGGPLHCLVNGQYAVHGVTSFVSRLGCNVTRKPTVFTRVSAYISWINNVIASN
tyrosinase, sequence (C7FF04 1-392): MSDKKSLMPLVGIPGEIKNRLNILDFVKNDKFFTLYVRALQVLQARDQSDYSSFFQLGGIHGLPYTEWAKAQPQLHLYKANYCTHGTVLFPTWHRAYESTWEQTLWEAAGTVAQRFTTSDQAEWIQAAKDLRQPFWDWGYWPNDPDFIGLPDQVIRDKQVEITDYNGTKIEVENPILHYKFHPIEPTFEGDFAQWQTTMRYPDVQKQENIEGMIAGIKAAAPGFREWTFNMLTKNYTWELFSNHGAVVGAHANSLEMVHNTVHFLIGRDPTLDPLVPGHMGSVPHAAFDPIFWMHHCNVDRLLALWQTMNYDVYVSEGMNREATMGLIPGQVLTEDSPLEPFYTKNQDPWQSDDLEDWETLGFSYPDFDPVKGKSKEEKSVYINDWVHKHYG

SMILES: COc1cc2ccc3cccc(O)c3c2c(OC)c1O [Compound 1, bulbophyllanthrin]
- Collagenase inhibitory activity (in words) (collagenase): dose-dependent anti-collagenase activity

SMILES: COc1ccc2c(ccc3cc(OC)c(O)c(OC)c32)c1 [Compound 2, 3-hydroxy-2,4,7-trimethoxy-phenanthrene]
- Collagenase inhibition (collagenase; pure compound at 25 μM): 12.62 ± 1.48%
- Collagenase inhibition (collagenase; pure compound at 100 μM): 50.05 ± 2.67%
- Collagenase inhibition (collagenase; pure compound at 250 μM): 72.73 ± 1.38%
- Collagenase inhibitory activity (in words) (collagenase): dose-dependent anti-collagenase activity

SMILES: COc1cc2c(c(OC)c1O)-c1c(O)cccc1CC2 [Compound 4, marylaurencinol A]
- Collagenase inhibitory activity (in words) (collagenase): dose-dependent anti-collagenase activity

SMILES: COC1=CC(=O)c2c(ccc3cccc(O)c23)C1=O [Compound 5, 5-hydroxy-2-methoxy-1,4-phenanthrenequinone]
- Collagenase inhibitory activity (in words) (collagenase): dose-dependent anti-collagenase activity
- cytotoxic activity [1]: cytotoxic activity

SMILES: COC1=CC(=O)C2=C(CCc3cccc(O)c32)C1=O [Compound 6, ephemeranthroquinone B]
- Collagenase inhibitory activity (in words) (collagenase): dose-dependent anti-collagenase activity

SMILES: COc1cc(O)cc(CCc2ccc(O)c(OC)c2)c1 [Compound 8, gigantol]
- Tyrosinase inhibitory activity (in words) (tyrosinase): important anti-tyrosinase activity; also recorded: moderate, dose-dependent, inhibition activity
- Elastase inhibitory activity (in words) (elastase): non-active
- Collagenase inhibitory activity (in words) (collagenase): non-active

SMILES: COc1cc(CCc2cc(O)cc(O)c2)ccc1O [Compound 9, tristin]
- Tyrosinase inhibitory activity (in words) (tyrosinase): important anti-tyrosinase activity; also recorded: moderate, dose-dependent, inhibition activity
- Elastase inhibitory activity (in words) (elastase): non-active
- Collagenase inhibitory activity (in words) (collagenase): non-active

SMILES: Cc1cc(O)cc(O)c1 [Compound 14, orcinol]
- Elastase inhibitory activity (in words) (elastase): inactive
- Collagenase inhibitory activity (in words) (collagenase): inactive

SMILES: CC(C)C[C@H](NC(=O)N[C@H](C(=O)N[C@@H](CCC(N)=O)C(=O)N[C@@H](C)C=O)[C@@H]1CCNC(=N)N1)C(=O)O [Elastatinal, reference compound]
- IC50 (elastase; positive control): 975 nM
- IC100 (elastase, positive control) (elastase; positive control): 5 µg/mL

SMILES: O=C(O)c1cc(O)c(O)c(O)c1 [Gallic Acid]
- IC50 (DPPH, positive control) [2]: 100 µg/mL (≈ 588 µM)

SMILES: CC(C)C[C@H](NP(=O)(O)O[C@@H]1O[C@@H](C)[C@H](O)[C@@H](O)[C@H]1O)C(=O)N[C@@H](Cc1c[nH]c2ccccc12)C(=O)O [Phosphoramidon, reference compound]
- IC50 (collagenase; positive control): 6.9 µM

SMILES: Oc1ccc(/C=C/c2cc(O)cc(O)c2)cc1 [resveratrol]
- inhibitory effects on mushroom tyrosinase (mushroom tyrosinase): potent inhibitory effects
